According to ChEMBL document CHEMBL1141915, “1,3-Dioxo-4-methyl-2,3-dihydro-1H-pyrrolo[3,4-c]quinolines as potent caspase-3 inhibitors” (Bioorg Med Chem Lett, 2005):

Target: T1, Caspase-3 (Homo sapiens, UniProt P42574)
T1 sequence (P42574 whole entry): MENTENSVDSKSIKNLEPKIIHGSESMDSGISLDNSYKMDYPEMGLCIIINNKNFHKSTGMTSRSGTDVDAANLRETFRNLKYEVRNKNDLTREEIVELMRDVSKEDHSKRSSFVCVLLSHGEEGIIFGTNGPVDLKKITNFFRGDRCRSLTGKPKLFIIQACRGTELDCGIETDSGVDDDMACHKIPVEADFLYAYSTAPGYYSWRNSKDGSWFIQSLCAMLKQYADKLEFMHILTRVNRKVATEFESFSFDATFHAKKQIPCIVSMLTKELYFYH
Experiment: In vitro inhibitory concentration measured against caspase-3

Row | Structure (SMILES) | IC50
1 | Cc1nc2ccccc2c2c1C(=O)N(C)C2=O | 6.36 µM
2 | Cc1nc2ccccc2c2c1C(=O)NC2=O | > 100 µM
